{"source": "patent US9624229B2", "about": "“Pyrimidine-2-amine compounds and their use as inhibitors of JAK kinases” (Rigel Pharmaceuticals, Inc., priority 2008, dated 2017)"}
{"biological_target": "Ba/F3 V617F cells (Homo sapiens, UniProt O60674, V617F, cells depend on it)", "sequence (O60674 whole entry V617F)": "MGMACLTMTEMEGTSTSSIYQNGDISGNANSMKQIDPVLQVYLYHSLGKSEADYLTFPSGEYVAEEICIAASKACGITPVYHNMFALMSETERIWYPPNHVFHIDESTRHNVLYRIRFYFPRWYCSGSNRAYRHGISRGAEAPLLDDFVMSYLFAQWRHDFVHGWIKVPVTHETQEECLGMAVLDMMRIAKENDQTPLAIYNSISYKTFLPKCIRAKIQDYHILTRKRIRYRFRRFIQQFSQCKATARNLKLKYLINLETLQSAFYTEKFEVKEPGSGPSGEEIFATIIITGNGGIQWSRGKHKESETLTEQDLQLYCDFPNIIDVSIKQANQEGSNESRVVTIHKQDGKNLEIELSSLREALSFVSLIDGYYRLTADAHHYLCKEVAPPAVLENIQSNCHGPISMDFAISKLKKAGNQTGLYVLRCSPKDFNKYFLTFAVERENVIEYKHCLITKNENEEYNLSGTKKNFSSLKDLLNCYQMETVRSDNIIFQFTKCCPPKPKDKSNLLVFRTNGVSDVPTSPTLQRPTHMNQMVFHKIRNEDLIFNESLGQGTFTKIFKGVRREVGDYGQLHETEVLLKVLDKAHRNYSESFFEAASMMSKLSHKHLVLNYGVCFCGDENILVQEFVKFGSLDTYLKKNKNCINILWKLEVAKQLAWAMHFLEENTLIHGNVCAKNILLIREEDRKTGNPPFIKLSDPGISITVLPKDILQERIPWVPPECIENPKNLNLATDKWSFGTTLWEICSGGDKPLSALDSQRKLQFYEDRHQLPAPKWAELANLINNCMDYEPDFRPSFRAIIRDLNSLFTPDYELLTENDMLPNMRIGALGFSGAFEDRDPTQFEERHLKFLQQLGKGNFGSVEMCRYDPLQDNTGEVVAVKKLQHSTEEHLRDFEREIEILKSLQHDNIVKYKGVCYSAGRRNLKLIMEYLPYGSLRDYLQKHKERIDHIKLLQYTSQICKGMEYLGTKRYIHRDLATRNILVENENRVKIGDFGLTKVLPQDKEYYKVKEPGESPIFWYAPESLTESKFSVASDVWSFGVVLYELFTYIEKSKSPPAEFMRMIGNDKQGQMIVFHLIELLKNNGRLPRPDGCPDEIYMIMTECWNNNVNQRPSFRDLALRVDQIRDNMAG", "assay": "Proliferation assay (Cell Titer-Glo, 72 h) utilizing Ba/F3 V617F cells", "type": "cell-based, mouse", "details": "Ba/F3 V617F cells, proliferation, level of activity given as class symbol, read-out: IC50 (the source's name)", "summary_of_the_method": "(§1)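 Ba/F3 V617F cells in RPMI/10% FBS, 1×10^5 cells/mL, exposed in duplicate to 3-fold serial compound dilutions (top 5 mM DMSO stock, diluted 1:250, added as 2× solution in 5% FBS medium) for 72 h at 37 °C. Viability by Cell Titer-Glo luminescence; IC50 reported.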", "units": {"GI50": "nM"}}
{"molecule": "Cc1cc(Nc2nccc(-c3cnc4[nH]c5c(c4c3)CCCC5)n2)ccc1N1C[C@@H]2C[C@H]1CN2C", "note": "[compound 267, 4-(6,7,8,9-tetrahydro-5H-pyrido[2,3-b]indol-3-yl)-N-(3-methyl-4-((1S,4S)-5-methyl-2,5-diazabicyclo[2.2.1]heptan-2-yl)phenyl)pyrimidin-2-amine]", "GI50": "1000 to 10000"}
{"molecule": "Cc1cc(Nc2nccc(-c3cnc4[nH]c5c(c4c3)CCCC5)n2)ccc1N1C[C@@H]2C[C@H]1CN2S(C)(=O)=O", "note": "[compound 268, 4-(6,7,8,9-tetrahydro-5H-pyrido[2,3-b]indol-3-yl)-N-(3-methyl-4-((1S,4S)-5-(methylsulfonyl)-2,5-diazabicyclo[2.2.1]heptan-2-yl)phenyl)pyrimidin-2-amine]", "GI50": "1000 to 10000"}
{"molecule": "Cc1cc(Nc2nccc(-c3ccc(C(F)(F)F)cc3)n2)ccc1N1C[C@@H]2C[C@H]1CN2C", "note": "[compound 269, 4-(4-(trifluoromethyl)phenyl)-N-(3-methyl-4-((1S,4S)-5-methyl-2,5-diazabicyclo[2.2.1]heptan-2-yl)phenyl)pyrimidin-2-amine]", "GI50": "< 1000"}
{"molecule": "Cc1cc(Nc2nccc(-c3cnc4c(c3)CN3CCCC3C(=O)N4)n2)ccc1N1C[C@@H]2C[C@H]1CN2C", "note": "(stereo partly drawn) [compound 270, 4-(7,8,9,9a-tetrahydro-5H-pyrido[2,3-e]pyrrolo[1,2-a][1,4]diazepin-10(11H)-on-3-yl)-N-(3-methyl-4-((1S,4S)-5-methyl-2,5-diazabicyclo[2.2.1]heptan-2-yl)phenyl)pyrimidin-2-amine]", "GI50": "< 1000"}
{"molecule": "CN1C[C@@H]2C[C@H]1CN2c1ccc(Nc2nccc(-c3ccc4c(c3)OC(C)(C)C(=O)N4)n2)cc1C#N", "note": "[compound 271, 4-(2,2-dimethyl-3-oxo-3,4-dihydro-2H-benzo[b][1,4]oxazin-7-yl)-N-(3-cyano-4-((1S,4S)-5-methyl-2,5-diazabicyclo[2.2.1]heptan-2-yl)phenyl)pyrimidin-2-amine]", "GI50": "< 1000"}
{"molecule": "CN1C[C@@H]2C[C@H]1CN2c1ccc(Nc2nccc(-c3ccc4c(c3)CCCC(=O)N4)n2)cc1C#N", "note": "[compound 272, 4-(2-oxo-2,3,4,5-tetrahydro-1H-benzo[b]azepin-7-yl)-N-(3-cyano-4-((1S,4S)-5-methyl-2,5-diazabicyclo[2.2.1]heptan-2-yl)phenyl)pyrimidin-2-amine]", "GI50": "< 1000"}
{"molecule": "CN1C[C@@H]2C[C@H]1CN2c1ccc(Nc2nccc(-c3ccc4c(c3)SCC(=O)N4)n2)cc1C#N", "note": "[compound 273, 4-(3-oxo-3,4-dihydro-2H-benzo[b][1,4]thiazin-7-yl)-N-(3-cyano-4-((1S,4S)-5-methyl-2,5-diazabicyclo[2.2.1]heptan-2-yl)phenyl)pyrimidin-2-amine]", "GI50": "< 1000"}
{"molecule": "Cc1cc(Nc2nccc(-c3ccc4c(c3)SCC(=O)N4)n2)ccc1N1C[C@@H]2C[C@H]1CN2C", "note": "[compound 274, 4-(3-oxo-3,4-dihydro-2H-benzo[b][1,4]thiazin-7-yl)-N-(3-methyl-4-((1S,4S)-5-methyl-2,5-diazabicyclo[2.2.1]heptan-2-yl)phenyl)pyrimidin-2-amine]", "GI50": "< 1000"}
{"molecule": "Cc1cc(Nc2nccc(-c3ccc(OC4CCOCC4)nc3)n2)ccc1N1CCN2CCC1C2", "note": "(stereo not shown) [compound 275, 4-(6-(tetrahydropyran-4-yloxy)pyridin-3-yl)-N-(3-methyl-4-(1,4-diazabicyclo[3.2.1]octan-4-yl)phenyl)pyrimidin-2-amine]", "GI50": "< 1000"}
{"molecule": "Cc1cc(Nc2nccc(-c3ccc(N4CCOCC4)nc3)n2)ccc1N1CCN2CC[C@@H]1C2", "note": "[compound 276, 4-(6-(morpholin-4-yl)pyridin-3-yl)-N-(3-methyl-4-((R)-1,4-diazabicyclo[3.2.1]octan-4-yl)phenyl)pyrimidin-2-amine]", "GI50": "< 1000"}
{"molecule": "Cc1cc(Nc2nccc(-c3ccc(N4CCOCC4)nc3)n2)ccc1N1CCN2CC[C@H]1C2", "note": "[compound 277, 4-(6-(morpholin-4-yl)pyridin-3-yl)-N-(3-methyl-4-((S)-1,4-diazabicyclo[3.2.1]octan-4-yl)phenyl)pyrimidin-2-amine]", "GI50": "< 1000"}
{"molecule": "Cc1cc(Nc2nccc(-c3ccc4c(c3)CCCC(=O)N4)n2)ccc1N1CCN2C(C1)[C@H]1CC[C@@H]2C1", "note": "(stereo partly drawn) [compound 278, 4-(2-oxo-2,3,4,5-tetrahydro-1H-benzo[b]azepin-7-yl)-N-(3-methyl-4-((6R,9S)-6,9-methanooctahydro-1H-pyrido[1,2-a]pyrazin-2-yl)phenyl)pyrimidin-2-amine]", "GI50": "< 1000"}
{"molecule": "Cc1cc(Nc2nccc(-c3ccc4c(c3)SCC(=O)N4)n2)ccc1N1CCN2C(C1)[C@H]1CC[C@@H]2C1", "note": "(stereo partly drawn) [compound 279, 4-(3-oxo-3,4-dihydro-2H-benzo[b][1,4]thiazin-7-yl)-N-(3-methyl-4-((6R,9S)-6,9-methanooctahydro-1H-pyrido[1,2-a]pyrazin-2-yl)phenyl)pyrimidin-2-amine]", "GI50": "< 1000"}
{"molecule": "Cc1cc(Nc2nccc(-c3ccc(N4C[C@@H]5C[C@H]4CO5)nc3)n2)ccc1N1CCN2CCC1CC2", "note": "[compound 280, 4-(6-((1S,4S)-2-oxa-5-azabicyclo[2.2.1]heptan-5-yl)pyridin-3-yl)-N-(3-methyl-4-(1,4-diazabicyclo[3.2.2]nonan-4-yl)phenyl)pyrimidin-2-amine]", "GI50": "< 1000"}
{"molecule": "Cc1cc(Nc2nccc(-c3ccc(OC4CCOCC4)nc3)n2)ccc1N1C2CCC1CC(N(C)C)C2", "note": "(stereo not shown) [compound 283, 4-(6-(tetrahydropyran-4-yloxy)pyridin-3-yl)-N-(3-methyl-4-(3-(dimethylamino)-8-azabicyclo[3.2.1]octan-8-yl)phenyl)pyrimidin-2-amine]", "GI50": "< 1000"}
{"molecule": "Cc1cc(Nc2nccc(-c3ccc(N4CCOCC4)nc3)n2)ccc1N1C2CCC1CC(N1CCOCC1)C2", "note": "(stereo not shown) [compound 284, 4-(6-(morpholin-4-yl)pyridin-3-yl)-N-(3-methyl-4-(3-(morpholin-4-yl)-8-azabicyclo[3.2.1]octan-8-yl)phenyl)pyrimidin-2-amine]", "GI50": "< 1000"}
{"molecule": "Cc1cc(Nc2nccc(-c3ccc(OC4CCOCC4)nc3)n2)ccc1N1C2CCC1CC(N1CCOCC1)C2", "note": "(stereo not shown) [compound 285, 4-(6-(tetrahydropyran-4-yloxy)pyridin-3-yl)-N-(3-methyl-4-(3-(morpholin-4-yl)-8-azabicyclo[3.2.1]octan-8-yl)phenyl)pyrimidin-2-amine]", "GI50": "< 1000"}
{"molecule": "Cc1cc(Nc2nccc(-c3ccc(N4CCOCC4)nc3)n2)ccc1N1C2CCC1CC(N(C)C)C2", "note": "(stereo not shown) [compound 286, 4-(6-(morpholin-4-yl)pyridin-3-yl)-N-(3-methyl-4-(3-(dimethylamino)-8-azabicyclo[3.2.1]octan-8-yl)phenyl)pyrimidin-2-amine]", "GI50": "< 1000"}
{"biological_target": "Ba/F3 V617F cells (Homo sapiens, UniProt O60674, V617F, cells depend on it)", "assay": "Proliferation assay (Cell Titer-Glo, 72 h) utilizing Ba/F3 V617F cells", "type": "cell-based, mouse", "details": "inhibition of JAK2 activity, proliferation of Ba/F3 V617F cells, read-out: IC50 (the source's name)", "summary_of_the_method": "as §1", "units": {"GI50": "nM"}}
{"molecule": "Cc1cc(Nc2nccc(-c3ccc(N4C[C@@H]5C[C@H]4CO5)nc3)n2)cnc1N1C[C@@H]2C[C@H]1CN2C", "note": "[compound 266, 4-(6-((1S,4S)-2-oxa-5-azabicyclo[2.2.1]heptan-5-yl)pyridin-3-yl)-N-(5-methyl-6-((1S,4S)-5-methyl-2,5-diazabicyclo[2.2.1]heptan-2-yl)pyridin-3-yl)pyrimidin-2-amine]", "GI50": "< 1000"}
